{"source": "patent US9326457B2", "about": "“Micro layering pest control solution” (DAIRY SOLUTIONS, INC, priority 2013, dated 2016)", "origin": "cited, not measured here", "details": "natural pyrethrum, degrades very quickly; short duration application", "data": [{"substance": "Pyrethrin", "values": [{"measurement": "half life", "result": "about 30 mins"}]}]}
